According to ChEMBL document CHEMBL5241115, “Postmodification of voxelotor (GBT 440) via [Rh]-catalyzed cross dehydrogenative coupling with olefins” (2022):

Assay: Induction of oxygen binding efficiency of haemoglobin from human sickled red blood cells at 100 uM measured every 10 mins for 180 mins by spectral scan analysis relative to control
Format: functional, Erythrocyte
Conditions: 3 h

In order of rising Activity:
1. COc1ccc(/C=C/c2cnn(C(C)C)c2-c2ncccc2COc2cccc(O)c2C=O)cc1  78.6%
2. Cc1ccc(/C=C/c2cnn(C(C)C)c2-c2ncccc2COc2cccc(O)c2C=O)cc1  78.9%
3. COc1ccc(/C=C/c2cnn(C(C)C)c2-c2ncccc2COc2cccc(O)c2C=O)c(OC)c1  81.1%
4. CCCCC(=O)/C=C/c1cnn(C(C)C)c1-c1ncccc1COc1cccc(O)c1C=O  82%
5. CC(C)n1nccc1-c1ncccc1COc1cccc(O)c1C=O [VOXELOTOR]  100%
